# Assay: Human HepG2 cell viability assay in 384 well format
# Assay type: toxicity, cell-based
# Design: dose 125 nL, time 70.5 hour; cytotoxicity at 70.5 h: concentration not given beside the values
# Settings: HepG2 cells, read-out: Inhibition
row,Structure (SMILES),cytotoxicity at 70.5 h [%]
1,N#Cc1cnn(-c2ccc(C(=O)Nc3ccccn3)cc2)c1N,25.3
2,COCCCNC1N=C(n2nc(C)cc2C)Nc2sc3c(c21)CCCC3 (centres undefined),8.46
3,COCCN(C)C(C(=O)O)c1ccc(C)c(C)c1 (centres undefined),0.276
4,CC(C)n1ccnc1CN1C(=O)OC[C@@H]1c1ccccc1,-2.47
5,CC(C)c1noc(CCCC(=O)NC(C)c2ccccn2)n1 (centres undefined),-9.67
6,Cc1cc(C)cc(CN2CCN(C(=O)C3CCC3)[C@@H]3CS(=O)(=O)C[C@@H]32)c1,-5.88
7,Cc1cc2cccc(C(=O)N3CC[C@](C)(O)[C@H](C)C3)c2o1,14.5
8,Cc1ccc(O[C@@H]2C[C@H]3CN(Cc4nccn4C)CCN3C2)cc1,-4.55
9,CSCCC(O)C(=O)N1CCCN(Cc2cccnc2)CC1 (centres undefined),-9.6
10,COc1ccc(-c2nc3c([nH]2)CCNC3C(=O)O)c2ccc(C)nc12 (centres undefined),12.4
11,CC(C)(C)c1nccc(N2CCCCC2CNS(C)(=O)=O)n1 (centres undefined),-4.1
12,Cc1cc(C)n(-c2cncc(N3CCC(C(=O)N(C)C)CC3)n2)n1,11.2
13,Cc1cc(C)nc(NC(=O)NCCCSc2nncn2C)n1,-8.45
14,CCOCC1CN(C(=O)c2ccsc2)Cc2nn(C)cc21 (centres undefined),-8.31
15,CCCc1cc(=O)[nH]c(-n2nc(-c3cccs3)cc2N)n1,-12.8
16,COc1ccc(CNC(=O)N2CCCN(CC3CCCCC3)CC2)cn1,-5.17
17,CN(Cc1cccs1)Cc1nnsc1Cl,-4.68
18,Cc1ccc(C)c(NC(=O)Cn2nc(C)c(C#N)c2N)c1,-10.2
19,Cc1cccc(C(=O)N2CC[C@H]3C[C@@H](C)O[C@@H]3C2)n1,-19.7
20,O=C1N(Cc2cccc(F)c2F)CCCC1(O)CNCc1ccccn1 (centres undefined),-2.1
21,CN(C)CCCNC(=O)c1cnc(Cc2ccc(F)cc2)s1,-6.21
22,CN(CC(=O)NCC(F)(F)F)C(=O)c1ccc(C(=O)OC(C)(C)C)cc1,-0.193
23,CC(C)OC(=O)N1CCCCC1CCn1cccn1 (centres undefined),-7.8

row,Structure (SMILES),cytotoxicity at 70.5 h [%]
1,O=C(NCc1ccncc1)N1CCSCC1CCO (centres undefined),10.5
2,Cc1c(-c2nnc(SCC(=O)O)n2C(C)c2ccccc2)cnn1C (centres undefined),-12.3
3,CC(C)OCCN1CCC(N2CCN(C)C2=O)CC1,-2.99
4,CN(C)CC(=O)N1CCC2(CC1)CN(c1ncccn1)CCO2,5.39
5,COC1COC2(CCN(Cc3ccc(Cl)cc3)CC2)C1 (centres undefined),6.16
6,NC(=O)CN1CCC(c2cc(C(F)(F)F)n3ccnc3n2)CC1,-3.15
7,CCN(Cc1nonc1C)C(=O)c1ccc(Br)o1,-4.49
8,COCCN1CCOCC12CCN(c1ccc(C#N)cc1)CC2,-0.11
9,CC1(C)CN(C(=O)c2occc2COc2cccc(C#N)c2)CCO1,3.19
10,COc1cc(C)c(C(C)Nc2ncc(C(N)=O)cc2Cl)cc1OC (centres undefined),-12.8
11,CN(C(=O)Cn1nc(-c2ccccc2)ccc1=O)C1CCS(=O)(=O)C1 (centres undefined),-12.1
12,CCN1C(=O)C(C)(C)c2cc(NC(=O)c3ccn(CC)n3)ccc21,-19.5
13,CCC[C@H]1CN(S(=O)(=O)c2cc(C)ccc2F)C[C@@H]1N,-0.888
14,COc1cccc([C@@]2(O)CC[C@@H]3CN(C(=O)c4cn(C)nc4C)C[C@@H]32)c1,1.27
15,COCCN1CCCC12CCN(Cc1cccnc1OC)CC2,31.2
16,COc1cc(N2C[C@H]3CN(Cc4ccccn4)C[C@H]3C2)ncn1,-4.15
17,O=C1CC2(CCN(S(=O)(=O)c3cccs3)C2)CN1c1ccccc1 (centres undefined),-9.28
18,Cc1cc2cc(CNC3CCN(CC4CCOC4)CC3)oc2cc1C (centres undefined),10.8
19,NCC1(c2cccc(C(F)(F)F)c2)CCC1,-2.75
20,CNc1cc(C2CCCN2Cc2ccccc2C(=O)O)ccn1 (centres undefined),-9.85
21,c1cnc2c(c1)cc([C@H]1CCCO1)n2CCN1CCOCC1,-27.8
22,CC1CCN(CC(O)CNc2ccccn2)CC1 (centres undefined),-6.21
23,Cc1nc(CCNc2ccc(-c3nc(C)c(C)c(=O)[nH]3)cn2)cs1,-1.37

row,Structure (SMILES),cytotoxicity at 70.5 h [%]
1,COc1ccc(NC(=O)c2ccc[nH]2)c(N2CCN(C(C)=O)CC2)n1,-0.755
2,CCCc1cc(CNc2cc(CCC)nc3ccnn23)on1,13.7
3,COc1ccccc1OC1CN(c2ccncc2)C1,-4.23
4,Cc1cccnc1C(Cc1ccsc1)NCc1cnc(N(C)C)nc1 (centres undefined),-8.31
5,COc1ccc(CN2CCC3(CCCN(C)C3=O)C2)c(OC)c1C (centres undefined),-10.1
6,O=c1[nH][nH]cc1-c1ccnc(NCCN2CCCC2)n1,50.4
7,CC(C)c1ncncc1C(=O)NCCN1CCCCCC1,-0.207
8,CN(C)CCN(C)C[C@H]1CN2CC[C@H]1C[C@@H]2CNC(=O)Nc1ccsc1,-2.68
9,COc1ccc(NC(=O)CN2CCS(=O)(=O)CC2)cn1,-10.4
10,Cn1cc(CN2CCC3(CCCN3S(C)(=O)=O)CC2)cn1,12.4
11,O=C(CN1CCN(CCO)CC1)NCc1ccc(Cl)s1,-1.03
12,Cc1nc(C)n(CC2CCCN(Cc3cccc(C#N)c3)C2)n1 (centres undefined),-15.1
13,CC1CCN(c2cc(CCC3CCCN3)ncn2)CC1 (centres undefined),-3.6
14,CNC(=O)C(C)(C)NC(=O)c1cc(COc2ccccc2OC)[nH]n1,-8.56
15,Cn1cc(CN2CC[C@H](O)[C@@H]2Cc2ccccc2)cn1,-0.0718
16,Cc1nnc(C(C)N2CCCN(Cc3ccc(F)cc3)CC2)o1 (centres undefined),-2.19
17,O=C(N1CCOCC1)N1C[C@H]2CC[C@@H]1CN(C1Cc3ccccc3C1)C2,5.2
18,Cc1cccc(NC(=O)N2CCCn3cnc(CN4CCCC4)c3C2)c1,-1.43
19,CCC(C)CN(C)C(=O)NCc1ccccc1-n1cccn1 (centres undefined),1.17
20,COc1ccccc1-n1c(C)cc(CNC(=O)NC(C)C)c1C,-9.03
21,O=C(C1CC1)N1CC[C@H](c2nnc(Cc3c[nH]c4ccccc34)o2)C1,-1.09
22,Cn1c(=O)oc2cc(S(=O)(=O)N3CCCCC3)c(Cl)cc21,47.9
23,Cn1nccc1-c1cnc2n1CCNC21CCN(C(=O)C2(C)CC2)CC1,-9.28

row,Structure (SMILES),cytotoxicity at 70.5 h [%]
1,CN(Cc1ccncc1)C1COC2(CCN(Cc3ccccn3)CC2)C1 (centres undefined),-7
2,Cc1ccc(CN2CC[C@H]3C(=O)N(c4cccnc4)CCO[C@H]3C2)o1,-5.97
3,Cc1nc([C@@H]2C[C@@H]3CCN(C(=O)Cc4cccc(F)c4)C[C@H]3O2)no1,-8
4,CC(C)c1nnc(CN2CCCC2Cn2cncn2)o1 (centres undefined),-11.1
5,Cc1nc(CN2CCC3(CC2)NC(=O)CC3c2cccnc2)cs1 (centres undefined),-8.17
6,Cn1ncc(C2CC(=O)NCc3nc4sccn4c32)c1C1CC1 (centres undefined),-12.3
7,OC(CNc1ccc(Cl)cn1)CN1CCOCC1 (centres undefined),2.86
8,CN1CCOC(CNCc2coc(-c3cccc(Cl)c3)n2)C1 (centres undefined),-0.236
9,COCCNC(=O)c1c(-n2cnnn2)sc2c1CCCC2,-4.74
10,O=C(NCCNC(=O)c1ccc(Cl)cc1)NCCn1cccc1,-4.35
11,CN1C(=O)C2(CCN(c3nccc4occc34)CC2)c2ccccc21,9.71
12,O=C(c1ccc(F)cc1F)N1CCN(C(=O)C2CCCCC2)CC1,-5.82
13,CCOc1c(CNC2CSCCSC2)cccc1OC,20.2
14,O=C(NCCNc1ncccn1)C1CCN(C(=O)NC2CC2)CC1,-4.22
15,CCc1nc(CN2CCN(C(=O)Cc3c(C)noc3C)CC2)cs1,-10.4
16,COc1ccccc1OCc1cc(C(=O)N2CCS(=O)(=O)CC2)n[nH]1,-6.21
17,O=C(OCCNc1ncccn1)c1ccc(Br)s1,-0.709
18,Cc1cc(F)ccc1S(=O)(=O)N(C)CC(N)=O,-6.18
19,O[C@H]1[C@H](n2cc(-c3ccccn3)nn2)c2ccccc2C12CCNCC2,-3.68
20,NC(=O)c1ccc2c(c1)nc1n2CCN(Cc2ccccc2)C1,-15.9
21,COc1c(CNC2CCC(O)CC2)c(C(C)C)nn1C (centres undefined),-5.04
22,Cc1noc(CS(=O)(=O)C/C=C/c2ccccc2)n1,-19.1
23,CC(C)C[C@@H]1N[C@H](C(=O)NC(C)C)Cc2c[nH]c3cccc1c23,-1.24

row,Structure (SMILES),cytotoxicity at 70.5 h [%]
1,Cn1ncc2c1CCCC2NCc1cccnc1 (centres undefined),-18.9
2,N#Cc1ccc(C(=O)N2CCC(c3ncc[nH]3)CC2)cn1,-7.49
3,NC1(C(=O)NCCC2CN(Cc3ccco3)CCO2)CCCC1 (centres undefined),29.8
4,Cn1ccnc1CN(CCO)Cc1ccc(C(F)(F)F)cc1,-6.45
5,O=C(c1cscn1)N1CCC2(CC1)CCN(S(=O)(=O)c1ccccc1)C2,-8.17
6,CC(C)CNC(=O)C1CC(=O)N(c2n[nH]c3ccccc23)C1 (centres undefined),-5.36
7,COCc1ccccc1NC(=O)NC(C)c1ccc(C)o1 (centres undefined),-3.14
8,CC(C)N1CCCC(C(=O)N2CCN(c3cnn(C)c(=O)c3)CC2)C1 (centres undefined),-7.17
9,c1coc(CN2CCc3onc(Cn4cccc4)c3C2)c1,-6.52
10,Cc1cc(NCc2cc3n(n2)CCCN(C(=O)C2CCC2)C3)nc(N)n1,-1.07
11,COc1c(C)cnc(CNCC(C)C)c1C,-4.09
12,CNCC(=O)N1CCCC1c1cncc(Oc2ccc(F)cc2)n1 (centres undefined),-2.91
13,CN1C(Cn2cccn2)C[C@@H]2CN(Cc3cccnc3)CC[C@@H]21 (some centres undefined),-6.35
14,CCOc1ccnc(N[C@@H](Cc2ccccc2)C(N)=O)n1,-6.36
15,Cc1ccc2nc(C(=O)N3CCCC[C@]4(C)NC(=O)CCC[C@H]34)cn2c1,-4.04
16,CCC(CC)c1cc(CNC(=O)N2CCOCC2CC)on1 (centres undefined),-10.6
17,CN(C)CC(=O)N1CCCC1c1ccccn1 (centres undefined),-3.81
18,CCCc1cc(=O)[nH]c2nnc(SCC(=O)NCc3ccc(C)cc3)n12,-6.16
19,CCNC(=O)CCN1CCCC1c1cccc2c1OCCO2 (centres undefined),-7.15
20,O=C(O)Cc1cccc(-n2ccnc2-c2ccc(Cl)s2)c1,-4.96
21,Cc1ccccc1-n1cc(CNc2ncnc3c2CCNCC3)cn1,-13.6
22,CN(Cc1ccsc1)Cc1nc(-c2ccncc2)no1,20.5
